Measurements taken from ChEMBL document CHEMBL4038308, “Lipophosphonoxins II: Design, Synthesis, and Properties of Novel Broad Spectrum Antibacterial Agents” (J Med Chem, 2017).
Converted amounts (≈) assume the structure as drawn.

Legend:
J774.A1 = experiment: Cytotoxicity against mouse J774A.1 cells assessed as damage to cell membrane by measuring propidium iodide intake at 5 uM by spectrofluorometric analysis; format: cell-based; conditions: j774.a1, 5 µM
Lipid bilayer [1] = experiment: Binding affinity to DOPG large unilamellar vesicle assessed as increase in fluorescence intensity at 5 mg/L after 10 mins by fluorescence assay relative to control
Lipid bilayer [2] = experiment: Binding affinity to DOPG large unilamellar vesicle assessed as Stern-Volmer quenching constant after 10 mins in presence of potassium iodide by fluorescence assay (reference value: 47.22 +/- 1.58 no_unit)
Lipid bilayer [3] = experiment: Binding affinity to DOPG large unilamellar vesicle assessed as blue shift in emission maximum at 5 mg/L after 10 mins by fluorescence assay relative to control
Pseudomonas aeruginosa = experiment: microbe, parasite or virus in culture; conditions: CCM 3955, 24 h

Structure (SMILES): CC[C@H](C)[C@H](NC(=O)CN)C(=O)NCC(=O)N[C@@H](C)C(=O)N[C@H](C(=O)N[C@@H](CC(C)C)C(=O)N[C@@H](CCCCN)C(=O)N[C@H](C(=O)N[C@@H](CC(C)C)C(=O)N[C@H](C(=O)N[C@H](C(=O)NCC(=O)N[C@@H](CC(C)C)C(=O)N1CCC[C@H]1C(=O)N[C@@H](C)C(=O)N[C@@H](CC(C)C)C(=O)N[C@H](C(=O)N[C@@H](CO)C(=O)N[C@@H](Cc1c[nH]c2ccccc12)C(=O)N[C@H](C(=O)N[C@@H](CCCCN)C(=O)N[C@@H](CCCNC(=N)N)C(=O)N[C@@H](CCCCN)C(=O)N[C@@H](CCCNC(=N)N)C(=O)N[C@@H](CCC(N)=O)C(=O)N[C@@H](CCC(N)=O)C(N)=O)[C@@H](C)CC)[C@@H](C)CC)[C@@H](C)O)[C@@H](C)O)C(C)C)C(C)C [MELITTIN]
- Activity (J774.A1): Toxic

Structure (SMILES): CCCCCCCCCCCCCCOP(=O)(CCN(CCCN)CCCN)OC[C@H]1O[C@@H](n2cc(-c3ccco3)c(=O)[nH]c2=O)[C@H](O)[C@@H]1O (stereo not given in full)
- fold change (FC) (Lipid bilayer [1]): 3.5
- KSV (Lipid bilayer [2]): 0.97
- Activity (Lipid bilayer [3]): 25 nm

Structure (SMILES): O=C(O)c1cn(C2CC2)c2cc(N3CCNCC3)c(F)cc2c1=O [CIPROFLOXACIN]
- MIC (Pseudomonas aeruginosa): 4 µg/mL (≈ 12.1 µM)
